# Like-named read-outs stand apart in the source and are kept apart here.
# Experiments:
# amyloid β protein = biological target: T1, amyloid β protein (Homo sapiens, UniProt P05067); assay: Staining test on a brain section of an Alzheimer disease patient (amyloid β protein); format: binding, human (Alzheimer disease patient); conditions: 100 μM compound in 50% ethanol, 10 minutes, fluorescence microscopy
# T1 construct: from tissue; host or cells: paraffin-embedded human brain sections (temporal lobe, hippocampus) of Alzheimer disease patients
# T1 sequence (P05067 672-713 limits assumed): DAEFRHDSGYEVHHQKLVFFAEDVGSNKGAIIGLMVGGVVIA
# Source text: (§1) (1) Brain specimens at the temporal lobe and the hippocampus of patients to which a definitive diagnosis of Alzheimer disease had been given, and those of normal senile persons were used. The specimens were given by our coworker, Fukushimura Hospital, Longevity Medicine Institute, and we were given their consent of use of the specimens for our study purpose by the bereaved of the patients (Fukushimura Hospital Ethical Review Board Approval No. 20).
# (§2) (2) The paraffin-embedded brain tissue was cut into slices having a thickness of 6 μm or 8 μm, and extended and dried on a slide. The paraffin brain section was processed for paraffin removal in xylene twice for 10 minutes, 100% ethanol twice for 5 minutes, 90% ethanol for 5 minutes and running water for 10 minutes in that order.
# (§3) (3) For pretreatment prior to the staining treatment with a compound of the invention, the sections were processed for autofluorescence removal with lipofuscin. First, the paraffin-removed sections were dipped in 0.25% KMnO4 solution for 20 minutes. These were washed with PBS, twice for 2 minutes, then dipped in 0.1% K2S2O5/oxalic acid solution for about 5 seconds, and then further washed with PBS, three times for 2 minutes.
# (§4) (4) About 150 μl of a 100 μM solution of a compound of the invention dissolved in 50% ethanol was dropwise applied to the section and reacted for 10 minutes. After dipped five times in tap water, the section was entrapped with Fluor Save Reagent (Calbiochem), and analyzed through microscopy with a fluorescence microscope (Nikon, Eclipse 80i). The images were taken with a digital camera (Nikon Dxm 1200F or Photometrics' Cool SNAP ES).
# neurofibrillary tangle = assay: Staining test on a brain section of an Alzheimer disease patient (neurofibrillary tangle); format: binding, human (Alzheimer disease patient); conditions: 100 μM compound in 50% ethanol, 10 minutes, fluorescence microscopy
# Source text: as §1, §2, §3, §4
# [1] = Brain permeability of [^18F]-labeled compound in mice; format: in vivo, male ICR mice; conditions: 2 minutes after intravenous administration, radioactivity
# Description: The partitioning HPLC fraction containing [^18F]THK525, [^18F]THK702, [^18F]THK727 or [^18F]THK763, obtained through labeling production, was diluted with distilled water (about 20 mL), then loaded in Sep-Pak tC18 cartridge (by waters). The cartridge was washed with distilled water (5 to 10 mL), and then the labeled compound was eluted with EtOH (3 to 5 mL). A suitable amount of 5% Polysorbate 80/ethanol solution was added to the EtOH eluate, and the solvent was evaporated away with heating at 80° C. with a rotary evaporator. Thus obtained, a mixture of the labeled compound and Polysorbate 80 was dissolved in physiological saline, thereby preparing a labeled compound-containing physiological saline. Thus prepared, the radiochemical purity of the chemical solution was 95% or more.
# [^18F]THK525, [^18F]THK702, [^18F]THK727 or […] to male ICR mice (6 to 7 weeks-age) via their tail vein. From the radioactivity deposition in the brain after 2 and 30 minutes, the brain permeability of the labeled compound was assessed. The radiochemical purity of the labeled compound-containing physiological saline used was at least 95%, and the relative radioactivity thereof was from 18.5 to 148 GBq/μmol; and from 1.11 to 2.22 MBq of the labeled compound was administered to one mouse. Regarding the assessment of the radioactivity deposition, the proportion of the radioactivity per the unit weight of the sample tissue to the overall radioactivity given to the test animal (% injected dose/g of tissue; % ID/g) was taken as the index. For measuring the radioactivity, used was a gamma counter (1480 WIZARD, by Perkin Elmer). The experiment protocol was as follows: A labeled compound was administered to mice via their tail vein. After 2 and 30 minutes, the cervical spine of the mouse was dislocated under ether anesthesia. Immediately, the blood was collected from its heart, and the whole brain (including cerebellum and brainstem) was taken out. The radioactivity and the tissue weight of each sample were measured, and from the data, % ID/g was computed.
# [2] = Acute toxicity test, intravenous administration to mice; format: in vivo; conditions: mice observed for 7 days
# Description: The compounds of the invention were tested for their acute toxicity through intravenous administration thereof to mice. Four Crj:CD1 male mice formed one test group, and some test groups of those mice were used (the mean body weight of the mice of each group was from 31 to 32 g). A test compound was dissolved in a mixture of 1 N HCl, polyethylene glycol-400 and distilled water, or dissolved in DMSO, and then diluted with distilled water. This was administered to each mouse via its tail vein.
# [3] = test system: histidine-requiring Salmonella typhimurium TA100 and TA98 strains; assay: Mutagenicity test (reverse mutation test); format: cell-based
# Description: In view of their use, it is desirable that the compounds of the invention have no mutagenicity or have little mutagenicity to a level causing no problem. For investigating the gene mutagenesis of the compounds of the invention, herein carried out was a reverse mutation test with histidine-requiring Salmonella typhimurium TA100 and TA98 strains. Two tests were carried out. One is a test for dose determination test; and the other is for mutagenicity.
# The test methods and the mutagenicity of the compounds of the invention are mentioned below. In the dose determination test, six doses of 0.160, 0.800, 4.00, 20.0, 100 and 500 μg/plate (common ratio 5) were tried.
# As a result of the dose determination test, when the mutagenicity of the test compound was admitted, then the actual test for mutagenicity was carried out, using the dose capable of giving an accurate dose-reaction curve. When no mutagenicity of the test compound was admitted in the dose determination test and when the growth inhibition of the test cells was admitted therein, then the dose to present the growth inhibition was taken as the maximum dose; and when the growth inhibition was not admitted, then a dose of 5000 μg/plate was taken as the maximum dose. With that, the actual test for mutagenicity was carried out on the level of 6 doses (common ratio 2).
# First, a test compound was dissolved or suspended in DMSO, then diluted in order to prepare test compound liquids having a varying concentration.
# 100 μl of a test compound liquid or a negative control (DMSO) solution was put into a sterilized test tube. Then, for the case in the absence of a metabolic activation system (−S9mix), 500 μl of 0.1 mol/liter sodium-phosphate buffer (pH 7.4) was added to it; and for the case in the presence of a metabolic activation system (+S9mix), 500 μl of S9mix was added to it.
# Next, 100 μl of the test strain suspension that had been cultivated with shaking at 37° C. for 8 hours was added to it, and preincubated in a shaking thermostat at 37° C. for 20 minutes. After shaken, 2 ml of top agar was added to it, and the contents were mixed.
# Next, the mixture was poured onto a minimal glucose agar plate medium (plate) and spread uniformly thereon, then the top agar was solidified, and the plate was transferred into a thermostat and incubated at 37° C. for 48 hours.
# Then, the number of the colonies grown through reverse mutation was counted.
# For counting it, […]. After area correction and miss-counting correction, the number of the colonies was computed. When the colony analyzer could not be used owing to the deposition of the test compound or the cell growth inhibition, then the number of the colonies was counted with the naked eye.
# In case where the number of the colonies through reverse mutation increased two times or more that of the negative control and where the dose dependency or the reproducibility of the increase was admitted, then the tested sample was decided as positive. When the sample was decided as positive, then the relative activity that indicates the relative comparative value of the intensity of the mutagenicity of the test compound was obtained according to the following formula:
# Relative Activity={(number of colonies per plate having the concentration)−(number of colonies per negative control plate)}/the value of concentration (mg/plate).
# Amyloid β protein 1-40 = biological target: T2, Amyloid β protein 1-40 (Homo sapiens, UniProt P05067); assay: Fluorescence Congo red method; format: binding; conditions: 1 h, compound 10 μM, amyloid β protein 5 μM
# T2 construct: Amyloid β protein 1-40 (bought from Peptide Laboratory); purchased Peptide Laboratory
# T2 sequence (P05067 672-711): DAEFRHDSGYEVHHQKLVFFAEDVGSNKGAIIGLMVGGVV
# Description: (1) Amyloid β protein 1-40 (bought from Peptide Laboratory) was dissolved in a phosphate buffer (pH 7.4) and left at 37° C. for 4 days.
# (2) 50 μl of Congo red dissolved in the buffer was applied to a 96-well microplate (final concentration, 0.1, 0.3, 1 μM).
# (3) 100 μl of amyloid β protein was added to it (final concentration 5 μM), and left as such for 30 minutes.
# (4) 100 μl of a test compound dissolved in the buffer was added to it (final concentration, 10 and left as such for 60 minutes.
# (5) Using a fluorescence microplate reader (Spectra Max 190 by Molecular Device), the sample was analyzed at the optimum exciting wavelength and the test wavelength that had been previously determined.
# (6) The fluorescence intensity in the presence of the test compound, amyloid β protein and Congo red is represented by A; that in the presence of the test compound and Congo red is by B; that in the presence of the test compound and amyloid β protein is by C; and that in the presence of only the test compound is by D. The β structure recognition of the test compound is computed according to the following formula:
# β structure recognition (%) of test compound={(A−B)/(C−D)}×100.
# [4] = irrespective of the absence or presence of S9mix
Compound,binding to amyloid β protein in the brain section of an Alzheimer disease patient (amyloid β protein),binding to neurofibrillary tangle in the brain section of an Alzheimer disease patient (neurofibrillary tangle),Brain Permeability of [^18F]-labeled Compound: Brain [1],Brain Permeability of [^18F]-labeled Compound: Plasma [1],Maximum Permissible Dose [2],further results
"CN1C=CC(=C/C=C2\C=Nc3ccccc32)C=C1 [THK-185, 3-[2-(1-methyl-1H-pyridin-4-ylidene)-ethylidene]-3H-indole]",bound to the amyloid β protein,bound to the amyloid β protein and the neurofibrillary tangle,,,,
"CN(C)c1ccc(-c2nnc(-c3sc4ccccc4c3Cl)o2)cc1 [THK-258, [4-[5-(3-chloro-benzo[b]thiophen-2-yl)-[1,3,4]oxadiazol-2-yl]-phenyl]-dimethylamine]",bound to the amyloid β protein,bound to the amyloid β protein and the neurofibrillary tangle,,,,
OCC(CF)COc1ccc2nc(/C=C/c3cnc(N4CCOCC4)s3)oc2c1 (stereo not drawn) [[^18F]THK-727],,,4.1 % ID/g or ml,2.9 % ID/g or ml,,
FCCOc1ccc2nc(/C=C/c3cnc(N4CCOCC4)s3)oc2c1 [[^18F]THK-525],,,4.7 % ID/g or ml,2.8 % ID/g or ml,,
"CNc1ncc(/C=C/c2nc3ccc(OC(CO)CF)cc3o2)s1 (stereo not drawn) [THK-761, (E)-6-[(1-fluoromethyl-2-hydroxy)ethoxy]-2-[2-[2-methylaminothiazol-5-yl]ethenyl]-benzoxazole]",The white space arrow indicates amyloid β protein,,,,≧10 mg/kg,relative activity ([3]; in the presence of S9mix): weak
CN(C)c1ncc(/C=C/c2nc3ccc(OC(CO)CF)cc3o2)s1 (stereo not drawn) [[^18F]THK-763],,,4.6 % ID/g or ml,3.7 % ID/g or ml,,
"CN1C=CC(=CC=C2C=CC(=O)C=C2)C=C1 [THK-317, 4-[2-(1-methyl-1H-pyridin-4-ylidene)-ethylidene]-cyclohexa-2,5-dienone]",bound to the amyloid β protein,bound to the amyloid β protein and the neurofibrillary tangle,,,,
"FCCOc1ccc2nc(/C=C/c3cnc(N4CCOCC4)s3)oc2c1 [THK-525, 6-(2-fluoro-ethoxy)-2-[2-(2-morpholin-4-yl-thiazol-5-yl)-vinyl]-benzoxazole]",bound to the amyloid β protein,,,,≧10 mg/kg,"relative activity [3, 4]: minus"
"OCC(CF)COc1ccc2nc(/C=C/c3cnc(N4CCOCC4)s3)oc2c1 (stereo not drawn) [THK-727, 2-fluoromethyl-3-[2-[2-(2-morpholin--yl-thiazol-5-yl)-vinyl]-benzoxazol-6-yloxy]-propan-1-ol]",The white space arrow indicates amyloid β protein,the white space arrow head indicates neurofibrillary tangle,,,≧10 mg/kg,"activity at 10 µM (Amyloid β protein 1-40; Congo red 0.1 μM, read-out: Binding Percentage of Compound in the presence of 0.1 μM CR): 73.6%; activity at 10 µM (Amyloid β protein 1-40; Congo red 0.3 μM, read-out: Binding Percentage of Compound in the presence of 0.3 μM CR): 35%; activity at 10 µM (Amyloid β protein 1-40; Congo red 1 μM, read-out: Binding Percentage of Compound in the presence of 1 μM CR): 3.1%; relative activity [3, 4]: minus"
"CN(C)c1ncc(/C=C/c2nc3ccc(OC(CO)CF)cc3o2)s1 (stereo not drawn) [THK-763, (E)-6-[(1-fluoromethyl-2-hydroxy)ethoxy]-2-[2-[2-dimethylamino-thiazol-5-yl]ethenyl]benzoxazole]",The white space arrow indicates amyloid β protein,,,,≧10 mg/kg,relative activity ([3]; in the presence of S9mix): weak
OCC(CF)Oc1ccc2nc(/C=C/c3cnc(N4CCOCC4)s3)oc2c1 (stereo not drawn) [[^18F]THK-702],,,4.2 % ID/g or ml,2.3 % ID/g or ml,,

# Reference: patent US20110190492A1, “DIAGNOSTIC PROBE FOR CONFORMATION DISEASE” (TOHOKU UNIVERSITY, priority 2005, published 2011)
